# Source: patent US11702422B2, “Imidazopyridazines as modulators of IL-17” (Janssen Pharmaceutica NV, priority 2020, dated 2023)
# Structures can show the parent of a compound that is named as a salt.
# Tests used:
# [1] = target: IL-17A(FLAG-Tagged): IL-17RA(His-Tagged) (Homo sapiens, UniProt Q16552, K93Q); experiment: IL-17A(FLAG-Tagged): IL-17RA(His-Tagged) Binding Disruption Eu-HTRF Assay; conditions: IL-17A/IL-17RA binding disruption, simple average if tested more than once
# Procedure, shortened: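 IC50 comes from a one-site competition fit of the HTRF 665/620 nm ratio. Compound dilutions (2-fold, 22 points) were held 1 h rt with FLAG-tagged IL-17A dimer, then His-tagged IL-17RA plus Eu-cryptate anti-FLAG and D2 anti-His antibodies were added for 2 h rt.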
# [2] = system: IL-17A-induced G-CSF production in human normal keratinocyte (NHK); experiment: NHK Assay: IL-17A-induced G-CSF production in human normal keratinocytes; type: cell-based; conditions: 24 h, adult normal human keratinocytes, IL-17A 5 ng/mL, simple average if tested more than once
# Procedure, shortened: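 IL-17A (5 ng/mL final) was pre-incubated 1 h at rt with titrated compound and then added to adult normal human keratinocytes (5% FBS, 0.2% DMSO) for 24 h at 37° C. Supernatant G-CSF was measured by HTRF against a standard curve to derive IC50. Viability was checked by CellTiter-Glo.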
# UniProt Q16552, sequence (Q16552 with tags, fused parts or gaps K93Q): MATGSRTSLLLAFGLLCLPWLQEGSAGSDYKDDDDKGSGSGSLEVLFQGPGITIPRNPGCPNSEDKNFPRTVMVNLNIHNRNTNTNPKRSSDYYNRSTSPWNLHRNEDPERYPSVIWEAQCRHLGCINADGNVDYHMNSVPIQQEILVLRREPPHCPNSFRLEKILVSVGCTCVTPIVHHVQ
SMILES,IC50 [1] [nM],"IC50 ([2]; Homo sapiens, Keratinocyte) [nM]",IC50 [2] [nM]
"Cc1nonc1C(=O)N[C@@H](COC(C)(C)C)c1cn2ncc(C(NC(=O)CCC(F)(F)F)C3CC3)cc2n1 (single isomer, unassigned) [Example 314, N—((R)-2-(tert-Butoxy)-1-(7-((R*)-cyclopropyl(4,4,4-trifluorobutanamido)methyl)imidazo[1,2-b]pyridazin-2-yl)ethyl)-4-methyl-1,2,5-oxadiazole-3-carboxamide]",560,–,2100
"O=C(CCC(F)(F)F)N[C@@H](c1cnn2cc([C@@H](NC(=O)c3ccncc3)C3CCC(F)(F)CC3)nc2c1)C1CC1 [Example 190, N—((S)-(7-((R)-Cyclopropyl(4,4,4-trifluorobutanamido)methyl)imidazo[1,2-b]pyridazin-2-yl)(4,4-difluorocyclohexyl)methyl)isonicotinamide]",220,820,–
"CC(C)n1nccc1C(=O)N[C@@H](COC(C)(C)C(F)(F)F)c1cn2ncc([C@H](NC(=O)CC3CC(F)(F)C3)C3CCOCC3)cc2n1 [Example 541, N—((R)-1-(7-((R)-(2-(3,3-Difluorocyclobutyl)acetamido)(tetrahydro-2H-pyran-4-yl)methyl)imidazo[1,2-b]pyridazin-2-yl)-2-((1,1,1-trifluoro-2-methylpropan-2-yl)oxy)ethyl)-1-isopropyl-1H-pyrazole-5-carboxamide]",130,29,–
"Cn1nccc1C(=O)N[C@H](c1cn2ncc(CNC(=O)[C@@H]3NCCC[C@H]3C(F)(F)F)cc2n1)C1CCCCC1 (relative stereo) [Example 3, (Trans-2R*,3R*)—N-((2-((S)-cyclohexyl(1-methyl-1H-pyrazole-5-carboxamido)methyl)imidazo[1,2-b]pyridazin-7-yl)methyl)-3-(trifluoromethyl)piperidine-2-carboxamide hydrochloride]",97,300,–
"O=C(CCC(F)(F)F)N[C@@H](c1cnn2cc([C@@H](NC(=O)c3cnnn3CCF)C3CCC(F)(F)CC3)nc2c1)C1CC1 [Example 105, N—((S)-(7-((R)-Cyclopropyl(4,4,4-trifluorobutanamido)methyl)imidazo[1,2-b]pyridazin-2-yl)(4,4-difluorocyclohexyl)methyl)-1-(2-fluoroethyl)-1H-1,2,3-triazole-5-carboxamide]",110,550,–
"O=C(CCC(F)(F)F)N[C@@H](c1cnn2cc([C@@H](NC(=O)[C@@H]3C[C@H]3CF)C3CCC(F)(F)CC3)nc2c1)C1CC1 (relative stereo) [Example 362, (1R*,2R*)—N—((S)-(7-((R*)-Cyclopropyl(4,4,4-trifluorobutanamido)methyl)imidazo[1,2-b]pyridazin-2-yl)(4,4-difluorocyclohexyl)methyl)-2-(fluoromethyl)cyclopropane-1-carboxamide]",4200,> 20000,–
"O=C(CCC(F)(F)F)N[C@@H](c1cnn2cc([C@@H](NC(=O)c3ccnc(OCC(F)F)c3)C3CCC(F)(F)CC3)nc2c1)C1CC1 [Example 179, N—((S)-(7-((R)-Cyclopropyl(4,4,4-trifluorobutanamido)methyl)imidazo[1,2-b]pyridazin-2-yl)(4,4-difluorocyclohexyl)methyl)-2-(2,2-difluoroethoxy)isonicotinamide]",45,450,–
"O=C(CCC(F)(F)F)N[C@@H](c1cnn2cc([C@@H](NC(=O)c3cccc(C4CC4)c3)C3CCC(F)(F)CC3)nc2c1)C1CC1 [Example 166, 3-Cyclopropyl-N—((S)-(7-((R)-cyclopropyl(4,4,4-trifluorobutanamido)methyl)imidazo[1,2-b]pyridazin-2-yl)(4,4-difluorocyclohexyl)methyl)benzamide]",57,130,–
"CCn1nccc1C(=O)N[C@H](c1cn2ncc([C@H](NC(=O)CCC(F)(F)F)C3CC3)cc2n1)C1CCC(F)(F)CC1 [Example 127, N—((S)-(7-((R)-Cyclopropyl(4,4,4-trifluorobutanamido)methyl)imidazo[1,2-b]pyridazin-2-yl)(4,4-difluorocyclohexyl)methyl)-1-ethyl-1H-pyrazole-5-carboxamide]",40,100,–

# The next lines start with results.
IC50 [1] [nM],SMILES,"IC50 ([2]; Homo sapiens, Keratinocyte) [nM]",IC50 [2] [nM]
130,"O=C(CCC(F)(F)F)NC(c1cnn2cc(C(NC(=O)c3ncnn3CC3CC3(F)F)C3CCC(F)(F)CC3)nc2c1)C1CC1 [Example 475, N—((R)-(7-((S)-Cyclopropyl(4,4,4-trifluorobutanamido)methyl)imidazo[1,2-b]pyridazin-2-yl)(4,4-difluorocyclohexyl)methyl)-1-((2,2-difluorocyclopropyl)methyl)-1H-1,2,4-triazole-5-carboxamide]",330,–
340,"CCC(CC(=O)N[C@@H](c1cnn2cc([C@@H](NC(=O)c3nonc3C)C3CCC(F)(F)CC3)nc2c1)C1CC1)CC(F)(F)F (single isomer, unassigned) [Example 342, N—((S)-(7-((R)-Cyclopropyl((R*)-3-ethyl-5,5,5-trifluoropentanamido)methyl)imidazo[1,2-b]pyridazin-2-yl)(4,4-difluorocyclohexyl)methyl)-4-methyl-1,2,5-oxadiazole-3-carboxamide]",–,1400
52,"Cc1nonc1C(=O)N[C@H](c1cn2ncc([C@H](NC(=O)C(F)CC3CC3)C3CC3)cc2n1)C1CCC(F)(F)CC1 (single isomer, unassigned) [Example 344, N—((S)-(7-((R)-Cyclopropyl((R*)-3-cyclopropyl-2-fluoropropanamido)methyl)imidazo[1,2-b]pyridazin-2-yl)(4,4-difluorocyclohexyl)methyl)-4-methyl-1,2,5-oxadiazole-3-carboxamide]",–,230
120,"Cc1nonc1C(=O)N[C@H](c1cn2ncc(C(CC#N)NC(=O)CC3CC(F)(F)C3)cc2n1)C1CCC(F)(F)CC1 (single isomer, unassigned) [Example 397, N—((S)-(7-((S*)-2-Cyano-1-(2-(3,3-difluorocyclobutyl)acetamido)ethyl)imidazo[1,2-b]pyridazin-2-yl)(4,4-difluorocyclohexyl)methyl)-4-methyl-1,2,5-oxadiazole-3-carboxamide]",–,600
28,"N#CC1([C@@H](NC(=O)C[C@H]2CC2(F)F)c2cnn3cc([C@@H](NC(=O)c4nonc4C4CC4)C4CCC(F)(F)CC4)nc3c2)CCC1 (relative stereo) [Example 449, N—((S)-(7-((S*)-(1-Cyanocyclobutyl)(2-((S*)-2,2-difluorocyclopropyl)acetamido)methyl)imidazo[1,2-b]pyridazin-2-yl)(4,4-difluorocyclohexyl)methyl)-4-cyclopropyl-1,2,5-oxadiazole-3-carboxamide]",4.7,–
310,"Cc1nonc1C(=O)N[C@H](c1cn2ncc([C@H](NC(=O)C(F)C3CC3)C3CC3)cc2n1)C1CCC(F)(F)CC1 (single isomer, unassigned) [Example 331, N—((S)-(7-((R)-Cyclopropyl((R*)-2-cyclopropyl-2-fluoroacetamido)methyl)imidazo[1,2-b]pyridazin-2-yl)(4,4-difluorocyclohexyl)methyl)-4-methyl-1,2,5-oxadiazole-3-carboxamide]",–,1500
48,"O=C(CCC(F)(F)F)N[C@@H](c1cnn2cc([C@@H](NC(=O)c3nonc3OC3CC3)C3CCC(F)(F)CC3)nc2c1)C1CC1 [Example 380, 4-Cyclopropoxy-N—((S)-(7-((R)-cyclopropyl(4,4,4-trifluorobutanamido)methyl)imidazo[1,2-b]pyridazin-2-yl)(4,4-difluorocyclohexyl)methyl)-1,2,5-oxadiazole-3-carboxamide]",30,–
100,"O=C(CCC(F)(F)F)N[C@@H](c1cnn2cc([C@@H](NC(=O)c3conc3C3COC3)C3CCC(F)(F)CC3)nc2c1)C1CC1 [Example 235, N—((S)-(7-((R)-Cyclopropyl(4,4,4-trifluorobutanamido)methyl)imidazo[1,2-b]pyridazin-2-yl)(4,4-difluorocyclohexyl)methyl)-3-(oxetan-3-yl)isoxazole-4-carboxamide]",220,–
35,"N#CC1([C@@H](NC(=O)C[C@H]2CC2(F)F)c2cnn3cc([C@@H](NC(=O)c4nonc4C4CC4)C4CCC(F)(F)CC4)nc3c2)CCC1 (single isomer, unassigned) [Example 448]",12,–
1100,"Cc1nonc1C(=O)N[C@H](c1cn2ncc([C@H](NC(=O)COC(F)F)C3CC3)cc2n1)C1CCC(F)(F)CC1 [Example 278, N—((S)-(7-((R)-Cyclopropyl(2-(difluoromethoxy)acetamido)methyl)imidazo[1,2-b]pyridazin-2-yl)(4,4-difluorocyclohexyl)methyl)-4-methyl-1,2,5-oxadiazole-3-carboxamide]",2500,–
110,"CC(CC(=O)N[C@@H](c1cnn2cc([C@@H](NC(=O)c3nonc3C3CC3)C3CCC(F)(F)CC3)nc2c1)C1CC1)C(F)(F)F (single isomer, unassigned) [Example 300, 4-Cyclopropyl-N—((S)-(7-((R)-cyclopropyl((R*)-4,4,4-trifluoro-3-methylbutanamido)methyl)imidazo[1,2-b]pyridazin-2-yl)(4,4-difluorocyclohexyl)methyl)-1,2,5-oxadiazole-3-carboxamide]",–,320
